The source of these data is PubChem BioAssay (NCI).

Some test systems named below: A549 NSCLC; EKVX NSCLC; HOP-92 NSCLC; K-562 leukemia; M14 melanoma; NCI-H23 lung; NCI/ADR-RES ovarian; OVCAR-8 ovarian; RXF 393 renal; SN12C renal; HT29 colon.
Test in all cases: DTP human tumour cell line panel, 48 h

Several values for one entry are separate records, joined by “and”; a condition that tells them apart may be missing. Equal entries are not always repeated.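 96-well plates; 48 h exposure; 5 concentrations. Endpoints by linear interpolation between flanking doses. Not reached: highest tested concentration assigned. GI50: concentration for 50% inhibition of growth. TGI is the concentration that stops growth completely.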

One may read the TGI as the concentration giving total growth inhibition. A low value points to more potent growth arrest. Usually GI50 stands for the concentration that inhibits growth by half.

As for `O=C(O)Cc1ccc2nc(COC(=O)c3ccccc3)sc2c1`, the total growth inhibition concentration (TGI) with A549 NSCLC, in the assay on EKVX NSCLC, with HOP-92 NSCLC, in the assay with K-562 leukemia, in the assay with M14 melanoma and in the assay on NCI-H23 lung was > 100 µM throughout. For the same molecule, the TGI with NCI/ADR-RES ovarian, in the assay on OVCAR-8 ovarian, in the assay on RXF 393 renal and in the assay with SN12C renal was > 100 µM throughout.
With `COc1cc([C@@H]2c3cc4c(cc3C[C@H]3COC(=O)[C@@H]32)OCO4)cc(OC)c1OC`, the GI50 is 0.00375 µM in the assay with A549 NSCLC; 0.00752 µM with HOP-92 NSCLC; 0.00294 µM and 0.00647 µM with HT29 colon; 0.00404 µM in the assay on K-562 leukemia; 0.00428 µM in the assay with NCI-H23 lung; 0.00917 µM in the assay with NCI/ADR-RES ovarian. The GI50 is 0.00407 µM in the assay with OVCAR-8 ovarian; 0.00723 µM and 0.0157 µM in the assay on RXF 393 renal; 0.0067 µM in the assay with SN12C renal. Moreover, the concentration for total growth inhibition (TGI) is > 50 µM in the assay with A549 NSCLC; > 50 µM with EKVX NSCLC; 21.9 µM with K-562 leukemia; 3.52 µM in the assay on NCI-H23 lung; 0.202 µM in the assay with NCI/ADR-RES ovarian; 0.324 µM in the assay with OVCAR-8 ovarian. Besides, the TGI is > 50 µM in the assay on RXF 393 renal and > 10.8 µM in the assay with SN12C renal.
Consider `COC(c1ccc(C(C)(C)C)cc1)(c1ccc(C(C)(C)C)cc1)c1cc(C(O)(c2cc(C(OC)(c3ccc(C(C)(C)C)cc3)c3ccc(C(C)(C)C)cc3)c(C)cc2C)c2cc(C(OC)(c3ccc(C(C)(C)C)cc3)c3ccc(C(C)(C)C)cc3)c(C)cc2C)c(C)cc1C`, for which the TGI with A549 NSCLC, in the assay on EKVX NSCLC, with HOP-92 NSCLC, in the assay on HT29 colon, in the assay with K-562 leukemia and with M14 melanoma was > 100 µM throughout. The TGI with NCI-H23 lung, in the assay on NCI/ADR-RES ovarian, with OVCAR-8 ovarian and with RXF 393 renal was > 100 µM throughout.
As to `CCN(CCCN(CC)C(=O)N[C@@H](Cc1ccccc1)C(=O)NC)C(=O)N[C@@H](Cc1ccccc1)C(=O)NC`, the TGI in the assay with A549 NSCLC, in the assay with EKVX NSCLC, in the assay with HOP-92 NSCLC, in the assay with HT29 colon, in the assay on M14 melanoma and in the assay on NCI-H23 lung was > 100 µM in each case. Besides, the TGI in the assay with NCI/ADR-RES ovarian, with OVCAR-8 ovarian and with RXF 393 renal was > 100 µM throughout.
Consider `CC(C)/C(Cl)=N\OC(=O)NNc1ccccc1`, for which the concentration for total growth inhibition (TGI) with A549 NSCLC is > 100 µM; with EKVX NSCLC it was 37.3 µM; with HOP-92 NSCLC, 35.3 µM; with HT29 colon, > 100 µM; in the assay on M14 melanoma, > 56.3 µM; in the assay on NCI-H23 lung it was > 100 µM. In addition, the total growth inhibition concentration (TGI) is > 100 µM in the assay on NCI/ADR-RES ovarian, > 100 µM in the assay with OVCAR-8 ovarian, > 100 µM in the assay on RXF 393 renal and > 74.7 µM with SN12C renal.
As to `CC(C)CCNC(=O)c1ccc(CNC(=O)/C=C/c2ccc(OCc3ccccc3)cc2)cc1`, the TGI in the assay on A549 NSCLC, in the assay with HOP-92 NSCLC, in the assay on HT29 colon, in the assay with K-562 leukemia, in the assay with M14 melanoma and in the assay with NCI-H23 lung was > 100 µM each time. Besides, the TGI in the assay on NCI/ADR-RES ovarian, in the assay on OVCAR-8 ovarian, with RXF 393 renal and with SN12C renal was > 100 µM throughout.
On to `Cc1nc2ccc([N+](=O)[O-])cc2c(=O)n1C(=S)Nc1cccc(Cl)c1`, for which the total growth inhibition concentration (TGI) was 92 µM in the assay on A549 NSCLC; > 100 µM in the assay with EKVX NSCLC; 25.6 µM in the assay on HOP-92 NSCLC; 39.6 µM with HT29 colon; 98.5 µM with K-562 leukemia; 53.6 µM in the assay with M14 melanoma. Also, the total growth inhibition concentration (TGI) with NCI-H23 lung is 38.1 µM; with NCI/ADR-RES ovarian, 89.7 µM; in the assay on RXF 393 renal, 40 µM; in the assay with SN12C renal, 51.4 µM.
On to `COc1cc2c(cc1OC)C(=O)/C(=C/c1cc(C)c(O)c(C)c1)C2`, for which the total growth inhibition concentration (TGI) with A549 NSCLC, in the assay with EKVX NSCLC, in the assay on HOP-92 NSCLC, with K-562 leukemia, with M14 melanoma and with NCI-H23 lung was > 100 µM in each case. The TGI with NCI/ADR-RES ovarian is > 100 µM; in the assay on RXF 393 renal, 0.439 µM; in the assay with SN12C renal, > 100 µM.
For `CCC[C@H](C)[C@H]1NC(=O)[C@@H](NC(=O)[C@@H](CC(C)C)N(C)C(=O)C2CCCN2C(=O)[C@H](C)O)[C@@H](C)OC(=O)[C@H](CC(C)C)N(C)C(=O)[C@@H]2CCCN2C(=O)[C@H](CC(C)C)NC(=O)[C@@H](C)C(=O)[C@H](C(C)C)OC(=O)C[C@@H]1O` (stereo partly drawn), the TGI was determined as 0.131 µM in the assay on A549 NSCLC; 0.339 µM in the assay on EKVX NSCLC; 0.0093 µM with HOP-92 NSCLC; 0.0102 µM in the assay with HT29 colon; 3.26 µM in the assay on K-562 leukemia; 0.0848 µM in the assay with M14 melanoma. Also, the total growth inhibition concentration (TGI) amounted to 0.00447 µM with NCI-H23 lung, 2.62 µM in the assay with NCI/ADR-RES ovarian, 0.0484 µM with OVCAR-8 ovarian and 0.016 µM in the assay on RXF 393 renal.
As for `CC(=O)/C(=C/n1c(=S)sc2ccccc21)C(=O)Nc1ccccc1C`, the TGI in the assay with A549 NSCLC, with EKVX NSCLC, with HOP-92 NSCLC, with HT29 colon, with M14 melanoma and with NCI-H23 lung was > 100 µM throughout. The TGI in the assay on NCI/ADR-RES ovarian, in the assay on OVCAR-8 ovarian, in the assay with RXF 393 renal and in the assay on SN12C renal was > 100 µM throughout.
In the case of `O=C1NC(=S)NC(=O)C1C(c1ccccc1[N+](=O)[O-])C1C(=O)NC(=S)NC1=O`, the TGI in the assay with A549 NSCLC, in the assay with HOP-92 NSCLC, in the assay on HT29 colon, in the assay on K-562 leukemia, with M14 melanoma and with NCI-H23 lung was > 100 µM throughout. The total growth inhibition concentration (TGI) with NCI/ADR-RES ovarian, with OVCAR-8 ovarian, in the assay with RXF 393 renal and in the assay with SN12C renal was > 100 µM each time.
Regarding `O=c1nc2c(c(-c3cccc(Cl)c3)[nH]1)COC/C2=C\c1cccc(Cl)c1`, the TGI in the assay with EKVX NSCLC, in the assay on HOP-92 NSCLC, in the assay with K-562 leukemia, in the assay with M14 melanoma, in the assay on NCI-H23 lung and with NCI/ADR-RES ovarian was > 100 µM throughout. Further, the concentration for total growth inhibition (TGI) in the assay with OVCAR-8 ovarian, with RXF 393 renal and with SN12C renal was > 100 µM throughout.
In the case of `COC(=O)C1CC(C=[N+](C)C)=C(SC)N1` (stereo not drawn), the TGI in the assay with EKVX NSCLC, in the assay with HOP-92 NSCLC, with HT29 colon, in the assay on K-562 leukemia, in the assay with M14 melanoma and with NCI-H23 lung was > 100 µM in each case. Further, the TGI with NCI/ADR-RES ovarian, in the assay on OVCAR-8 ovarian and in the assay with RXF 393 renal was > 100 µM each time.
